Data as given in PubChem BioAssay (NCI).
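48-hour exposure; five concentrations; linearly interpolated endpoints. Here, GI50 denotes the concentration required for 50% inhibition of growth. The concentration for full growth arrest is given as TGI.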

Columns and labels:
Assay in all cases: NCI-60 cell line screen, 48 h
HCT-15 colon = test system: HCT-15 colon
LOX IMVI melanoma = test system: LOX IMVI melanoma
RXF 393 renal = test system: RXF 393 renal
SK-MEL-2 melanoma = test system: SK-MEL-2 melanoma
HS 578T breast = test system: HS 578T breast
786-0 renal = test system: 786-0 renal
UACC-257 melanoma = test system: UACC-257 melanoma
MOLT-4 leukemia = test system: MOLT-4 leukemia
NCI/ADR-RES ovarian = test system: NCI/ADR-RES ovarian
K-562 leukemia = test system: K-562 leukemia

Structure (SMILES) | GI50 (HCT-15 colon) [µM] | TGI (HCT-15 colon) [µM] | GI50 (LOX IMVI melanoma) [µM] | TGI (LOX IMVI melanoma) [µM] | GI50 (RXF 393 renal) [µM] | TGI (RXF 393 renal) [µM] | GI50 (SK-MEL-2 melanoma) [µM] | TGI (SK-MEL-2 melanoma) [µM] | GI50 (HS 578T breast) [µM] | TGI (HS 578T breast) [µM] | GI50 (786-0 renal) [µM] | TGI (786-0 renal) [µM] | GI50 (UACC-257 melanoma) [µM] | TGI (UACC-257 melanoma) [µM] | GI50 (MOLT-4 leukemia) [µM] | TGI (MOLT-4 leukemia) [µM] | GI50 (NCI/ADR-RES ovarian) [µM] | TGI (NCI/ADR-RES ovarian) [µM] | GI50 (K-562 leukemia) [µM] | TGI (K-562 leukemia) [µM]
CCOC(=O)c1c(Cl)c2c(n1Cc1cccc(OC)c1)-c1oncc1CC2 | 0.836 | > 100 | 2.51 | > 100 | 2.87 | 40.4 | 5.61 | 67.3 | 1.21 | 9.45 | 4.5 | 52.7 | 6.41 | > 100 | 3.48 | > 100 | 0.497 | 6.91 | 0.397 | > 100
Cc1cc(C)c2nc3nc(C)cc(C)c3c(N)c2c1 | 3.96 | 22.5 | 3.51 | 14.9 | 6.64 | 27.5 | 6.89 | 21.7 | 12.7 | 45.2 | 4.07 | 17.4 | 5.71 | 29.8 | 4.7 | 26.6 | 6.88 | 36.9 | 3.45 | 15.9
OCC1OC2OC3C(CO)OC(OC4C(CO)OC(OC5C(CO)OC(OC6C(CO)OC(OC7C(CO)OC(OC1C(O)C2O)C(O)C7O)C(O)C6O)C(O)C5O)C(O)C4O)C(O)C3O (stereo not given) (tested in a mixture with another compound) | – | > 100 | – | > 100 | – | > 100 | – | > 100 | – | > 100 | – | > 100 | – | > 100 | – | > 100 | – | > 96.1 | – | > 100
O=C(CN1C(=O)S/C(=C\C(Cl)=C\c2ccccc2)C1=O)NCCc1ccc(O)cc1 | 1.52 | 4.56 | 1.42 | 2.85 | 1.78 | 3.5 | 2.64 | 7.74 | 2.72 | 7.97 | 1.84 | 3.54 | 2.58 | 14.5 | 2.38 | > 100 | 2.44 | 8.81 | 2.28 | > 100
COc1nc(N)nc2c1ncn2[C@@H]1O[C@H](CO)[C@@H](O)[C@@H]1O | > 100 | > 100 | > 100 | > 100 | > 100 | > 100 | > 100 | > 100 | > 100 | > 100 | > 100 | > 100 | > 100 | > 100 | 9.51 | > 100 | > 100 | > 100 | > 100 | > 100
O=C(O)CP(=O)(O)O | – | > 100 | – | > 100 | – | > 100 | – | > 100 | – | > 100 | – | > 100 | – | > 100 | – | > 100 | – | > 100 | – | > 100
COc1cc(/C=C2\C(=O)N(c3ccccc3)c3ccccc32)cc(OC)c1OC | 4.37 | 17.1 | 2.24 | 4.61 | 0.107 | 2.87 | 11.7 | 30.7 | 28.2 | > 100 | 6.67 | 21.2 | 6.66 | 19.9 | 2.33 | 10.8 | 6.37 | 27.1 | 3.04 | > 100
Nc1ccc(-c2nc3ccccc3o2)cc1S | 16.5 | 30.3 | 12.3 | 24.8 | 29.4 | 59.6 | 42.4 | > 100 | 16.4 | 63.8 | 14.5 | 27.6 | 23.1 | 59.8 | 7.77 | > 100 | 24.9 | 65.2 | 19 | > 100
Clc1ccc(C2=NN[C@H](c3cn(-c4ccccc4)nc3-c3ccccc3)C2)cc1 | 16.5 | > 100 | 3.99 | 15.1 | 2.48 | 8.08 | 4.85 | 16.3 | 3.46 | 15.9 | 4.88 | 18.6 | 4.91 | 37.5 | 19.6 | > 100 | 3.17 | 12.7 | 4.8 | > 100
CC(=O)OC1Oc2cc(C)c(C)cc2-c2oc(=O)c(-c3ccc(F)cc3)cc21 (stereo not given) | 2.68 | 19.1 | 5.61 | > 100 | 2.95 | 8.71 | 6.05 | 41.3 | 8.56 | 68.6 | 9.55 | > 100 | 10.3 | 26 | 3.1 | 12.1 | 2.86 | 9.34 | 3.01 | 12.3
